Literature values as cited in patent US20060247203A1, “Freeze-dried preparation containing methylcobalamin and process for producing the same” (EISAI CO., LTD., priority 2003, published 2006).

Test system: patients with amyotrophic lateral sclerosis
Conditions: ALS patients; methylcobalamin 15 to 50 mg/once daily via intramuscular injection

C/C1=C2/[N-][C@H]([C@H](CC(N)=O)[C@@]2(C)CCC(=O)NC[C@@H](C)OP(=O)([O-])O[C@H]2[C@@H](O)[C@@H](n3cnc4cc(C)c(C)cc43)O[C@@H]2CO)[C@]2(C)N=C(/C(C)=C3N=C(/C=C4N=C1[C@@H](CCC(N)=O)C\4(C)C)[C@@H](CCC(N)=O)[C@]\3(C)CC(N)=O)[C@@H](CCC(N)=O)[C@]2(C)CC(N)=O.[CH3-].[Co+3] [methylcobalamin]
magnitude of compound muscle action potential: significant increase
subjective muscle strength: dose-dependent improvement
